Reference: patent US20120197004A1, “NOVEL ANTI-MICROBIAL PEPTIDOMIMETIC COMPOUNDS AND METHODS TO CALCULATE ANTI-MICROBIAL ACTIVITY” (priority 2006, published 2012)
Values after ≈ are worked out from the molar mass of the structure shown. Where a SMILES comes first, the peptide text is derived from it. [ ]: non-standard residue; d: D form. Oic = O=C(O)[C@@H]1C[C@@H]2CCCC[C@@H]2N1; Tic = O=C(O)[C@@H]1Cc2ccccc2CN1; Orn = NCCC[C@H](N)C(=O)O

Tests used:
[1] = test system: Bacillus subtillis (ATCC 43223)
[2] = test system: Salmonella typhimurium strain LT2; experiment: In vivo challenge, gram-negative infection; settings: Balb/c mice, intraperitoneal challenge 2.5×10^6; 5 mg/kg initial, then 2.5 mg/kg morning and afternoon
[3] = test system: Mycobacterium ranae (ATCC 110)
[4] = test system: Salmonella typhimurium (ATCC 13311)
mouse cutaneous injury = experiment: Mouse skin wound healing model; assay type: in vivo, CD-1 derived male mice; settings: topical once daily for 10 days; test substances 100 μg/mouse, CGS-21680 10 μg/mouse
Method: In-vivo assays: Selected compounds were evaluated in an in-vivo mouse skin wound healing model by MDS Pharma Services using the following protocol. Groups of CD-1 derived male mice (n=5) weighting 24±2 g were used. Under hexobarbitol (90 mg/kg, IP) anesthesia, the shoulder and back region of each animal was shaved. A sharp punch (ID 12 mm) was applied to remove the skin including panniculus carnosus and adherent tissues. […] The percent closure of the wound (%) was calculated, and wound half-closure time (CT50) was analyzed by linear regression using Graph-Prism (Graph Software USA). One-way ANOVA followed by Dunnett's test was applied for comparison between the treated and its corresponding vehicle groups at each measurement time point. Differences are considered statistically significant at P<0.05.^41

[5] = test system: Staphylococcus aureus Methicillin/Gentamicin/Tetracycline Resistant (ATCC 33592)

CC(=O)NCC(=O)N[C@@H](Cc1ccccc1)C(=O)N1Cc2ccccc2C[C@H]1C(=O)N1[C@H](C(=O)NCC(=O)N[C@@H](CCCN)C(=O)N2Cc3ccccc3C[C@H]2C(=O)N2[C@H](C(=O)NCC(=O)N[C@@H](Cc3ccccc3)C(=O)N3Cc4ccccc4C[C@H]3C(=O)N3[C@H](C(=O)NCC(=O)N[C@@H](CCCN)C(=O)N4Cc5ccccc5C[C@H]4C(=O)N[C@@H](CCCN)C(=O)N[C@@H](CCCN)C(=O)N[C@@H](CCCN)C(=O)N[C@@H](CCCN)C(N)=O)C[C@@H]4CCCC[C@@H]43)C[C@@H]3CCCC[C@@H]32)C[C@@H]2CCCC[C@@H]21 [FKAB-1Gp, Ac-GF-Tic-Oic-G-Orn-Tic-Oic-GF-Tic-Oic-G-Orn-Tic-Orn-Orn-Orn-Orn-CONH2] (Ac-GF[Tic][Oic]G[Orn][Tic][Oic]GF[Tic][Oic]G[Orn][Tic][Orn][Orn][Orn][Orn]-NH2)
p(MIC) Bacillus Subtillis ([1]; -log(MIC)): 6.52
MIC Bacillus Subtillis ([1]; ATCC 43223): 0.30 µM (≈ 0.707 µg/mL)
morbidity (survival compared to control group) [2]: Accelerated morbidity
Actual Bioactivity [3]: 5.000
MIC Mycobacterium ranae ([3]; ATCC 110): 10.00 µM (≈ 23.6 µg/mL)
Minimum Inhibitory Concentration Mycobacterium ranae ([3]; ATCC 110): 10 µM
p(MIC) Salmonella typhimurium ([4]; -log(MIC)): 5.52
MIC Salmonella typhimurium ([4]; ATCC 13311): 3 µM (≈ 7.07 µg/mL)
CT50 (wound half-closure time) (mouse cutaneous injury): 5.7 days
wound closure Day 3 (mouse cutaneous injury): 38.8%
wound closure Day 5 (mouse cutaneous injury): 51.2%
wound closure Day 7 (mouse cutaneous injury): 67.2%
wound closure Day 9 (mouse cutaneous injury): 72.8%
wound closure Day 11 (mouse cutaneous injury): 81.1%
p(MIC) Staphylococcus aureus ME/GM/TC resistant ([5]; -log(MIC)): 5.52
Actual Bioactivity ([5]; p(MIC) used in Staphylococcus aureus QSAR model): 5.520
